Series [1] concerns the target Sulfonylurea receptor 1, Kir6.2 (Homo sapiens) (UniProt Q14654+Q09428). The experiment in a line: Percentage of maximal agonistic response of Beta-cell KATP channel as compared to diazoxide (50 uM). The class given is functional.
The nature of series [2]: Acid dissociation constant was determined. The class given is ADME.
In series [3] the target is T1, Sulfonylurea receptor 1, Kir6.2 (Homo sapiens, UniProt Q09428+Q14654). The experiment in a line: Inhibition of Beta-cell KATP channel. The class given is functional.
Series [4] deals with T1, Sulfonylurea receptor 1, Kir6.2. The experiment in a line: Negative log EC50 for Beta-cell KATP channel. The class given is functional.

T1 sequence (Q14654 whole entry): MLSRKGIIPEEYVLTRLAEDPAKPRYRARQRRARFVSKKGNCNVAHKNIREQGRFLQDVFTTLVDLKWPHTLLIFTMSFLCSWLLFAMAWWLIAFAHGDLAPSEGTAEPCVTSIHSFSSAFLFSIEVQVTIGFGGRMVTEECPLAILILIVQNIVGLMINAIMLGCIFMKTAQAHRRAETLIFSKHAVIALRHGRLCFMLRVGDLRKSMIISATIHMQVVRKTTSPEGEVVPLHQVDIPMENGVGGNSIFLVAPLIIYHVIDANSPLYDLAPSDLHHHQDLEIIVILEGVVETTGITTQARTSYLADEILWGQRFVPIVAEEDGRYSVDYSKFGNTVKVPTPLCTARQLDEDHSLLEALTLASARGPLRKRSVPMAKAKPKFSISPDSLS
T1 sequence (Q09428 whole entry): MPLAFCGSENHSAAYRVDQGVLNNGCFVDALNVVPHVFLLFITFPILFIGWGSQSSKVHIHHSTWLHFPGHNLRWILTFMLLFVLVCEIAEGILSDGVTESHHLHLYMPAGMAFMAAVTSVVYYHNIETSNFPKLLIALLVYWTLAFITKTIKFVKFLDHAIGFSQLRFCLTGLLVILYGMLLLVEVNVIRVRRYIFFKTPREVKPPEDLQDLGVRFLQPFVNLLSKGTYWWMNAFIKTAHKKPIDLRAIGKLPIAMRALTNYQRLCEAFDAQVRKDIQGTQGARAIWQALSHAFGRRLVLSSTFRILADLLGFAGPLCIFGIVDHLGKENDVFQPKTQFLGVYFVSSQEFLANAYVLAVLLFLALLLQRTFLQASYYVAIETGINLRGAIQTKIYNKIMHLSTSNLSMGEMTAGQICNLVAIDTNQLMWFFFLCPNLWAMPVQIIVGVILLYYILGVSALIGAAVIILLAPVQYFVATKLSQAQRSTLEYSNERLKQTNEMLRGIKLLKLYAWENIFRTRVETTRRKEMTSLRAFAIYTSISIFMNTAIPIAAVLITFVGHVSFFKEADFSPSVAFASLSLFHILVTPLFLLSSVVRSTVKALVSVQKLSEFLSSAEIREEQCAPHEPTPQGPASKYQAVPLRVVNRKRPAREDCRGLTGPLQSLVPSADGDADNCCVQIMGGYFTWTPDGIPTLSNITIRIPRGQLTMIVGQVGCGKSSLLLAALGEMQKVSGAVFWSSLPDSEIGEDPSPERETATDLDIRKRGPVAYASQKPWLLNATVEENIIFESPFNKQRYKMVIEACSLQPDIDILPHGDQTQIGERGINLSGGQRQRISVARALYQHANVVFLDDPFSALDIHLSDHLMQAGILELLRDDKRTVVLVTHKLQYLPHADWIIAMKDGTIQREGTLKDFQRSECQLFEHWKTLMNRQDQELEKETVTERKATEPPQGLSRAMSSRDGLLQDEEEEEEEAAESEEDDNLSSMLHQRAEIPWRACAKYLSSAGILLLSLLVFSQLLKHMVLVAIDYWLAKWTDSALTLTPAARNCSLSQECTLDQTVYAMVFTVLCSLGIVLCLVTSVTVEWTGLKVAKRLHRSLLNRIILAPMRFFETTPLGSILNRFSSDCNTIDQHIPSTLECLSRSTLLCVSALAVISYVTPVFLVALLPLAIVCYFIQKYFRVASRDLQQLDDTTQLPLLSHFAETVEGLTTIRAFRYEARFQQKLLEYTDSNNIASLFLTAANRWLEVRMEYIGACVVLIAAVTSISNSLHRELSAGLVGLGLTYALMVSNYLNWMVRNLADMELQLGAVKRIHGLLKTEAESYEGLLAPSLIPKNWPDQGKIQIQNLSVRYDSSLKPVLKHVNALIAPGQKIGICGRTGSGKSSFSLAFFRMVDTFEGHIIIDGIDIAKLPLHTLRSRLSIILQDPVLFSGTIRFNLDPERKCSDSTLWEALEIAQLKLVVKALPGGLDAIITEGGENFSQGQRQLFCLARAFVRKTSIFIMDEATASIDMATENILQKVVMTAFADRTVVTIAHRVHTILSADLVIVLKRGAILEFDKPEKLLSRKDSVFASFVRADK

For `CC1=Nc2ccc(Cl)cc2S(=O)(=O)N1`, the Max in series [1] stood at 100%.
As for `O=S1(=O)NC(NC2CCC2)=Nc2ccc(F)cc21`, the pKa in series [2] came out at 9.57. In addition, the EC50 is 356 nM in series [3] and 398 nM in series [4]. In addition, the Max in series [1] worked out at 136%.
`CC1=NS(=O)(=O)c2cc(Cl)ccc2N1` [DIAZOXIDE] displayed a pKa in series [2] of 8.62.
For `COc1ccc2c(c1)S(=O)(=O)NC(NC1CCC1)=N2`, the values for the EC50 in series [3] and in series [4] were 3870 nM and 3980 nM, respectively. In series [1], the Max was determined as 122%.
The corresponding values for `O=S1(=O)N=C(NC2CCC2)Nc2ccccc21` are 1960 nM, 2000 nM and 109%.
`O=[N+]([O-])c1ccc2c(c1)S(=O)(=O)NC(NC1CCC1)=N2` registered a pKa in series [2] of 7.89. Further, the EC50 in series [3] is 530 nM. For the same compound, the Max in series [1] was 30.9%.
Consider `Nc1ccc2c(c1)S(=O)(=O)NC(NC1CCC1)=N2`, for which the 50% effective concentration (EC50) was 31000 nM in series [3] and 31600 nM in series [4]. Further, in series [1], the Max amounted to 96.9%.
For the compound `O=S1(=O)N=C(NC2CCC2)Nc2ccc(Cl)cc21`, the pKa in series [2] worked out at 9.36. Besides, the EC50 is 196 nM in series [3] and 200 nM in series [4]. Moreover, in series [1], the Max is 137%.

As usually defined, the pKa is the negative logarithm of the acid dissociation constant. What is called EC50 is the concentration that produces a half-maximal response.
